Biological target: T1, EP2 receptor (Homo sapiens, UniProt P43116)
T1 construct: expressed in transfected cells; host or cells: CHO-K1 cells (ATCC), transient transfection with FuGENE 6
Assay: EP2 Potency Assay (cAMP TR-FRET, CHO-K1 cells transfected with EP2 receptor, PGE2 at EC80)
Type: cell-based
Conditions: CHO-K1 cells expressing EP2, prostaglandin E2 at EC80, read-out: EP2 Potency (IC50 category)
In short: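 CHO-K1 cells transiently transfected with EP2 and seeded 24 h after transfection. IC50 from curve fit of percent inhibition versus concentration.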

T1 sequence (P43116 whole entry): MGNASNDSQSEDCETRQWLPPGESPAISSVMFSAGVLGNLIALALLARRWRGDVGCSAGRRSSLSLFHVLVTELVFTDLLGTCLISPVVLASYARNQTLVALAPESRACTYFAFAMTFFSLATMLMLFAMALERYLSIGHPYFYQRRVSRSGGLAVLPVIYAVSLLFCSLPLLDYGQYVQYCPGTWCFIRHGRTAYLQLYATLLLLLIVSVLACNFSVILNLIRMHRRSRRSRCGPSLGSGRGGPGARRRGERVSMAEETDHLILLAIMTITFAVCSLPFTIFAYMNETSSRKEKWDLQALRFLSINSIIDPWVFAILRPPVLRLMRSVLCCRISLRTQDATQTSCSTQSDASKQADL

Row | Structure (SMILES) | IC50 [nM]
1 | COC(=O)[C@H]1CC[C@H](CN2CCOc3c(Cl)cc(-n4ccc5cc(F)ccc54)cc3C2)CC1 [Compound 133] | > 5000
2 | COC(=O)[C@H]1CC[C@@H](CN2CCOc3c(Cl)cc(-n4ccc5cc(F)ccc54)cc3C2)CC1 [Compound 134] | > 5000
3 | NCc1ncc(CN2CCOc3c(Cl)cc(-n4ccc5cc(F)ccc54)cc3C2)cn1 [Compound 139, 1-(5-{[9-chloro-7-(5-fluoroindol-1-yl)-3,5-dihydro-2H-1,4-benzoxazepin-4-yl]methyl}pyrimidin-2-yl)methanamine] | 100 to 500
4 | CC(C)(C)OC(=O)NCc1ncc(CN2CCOc3c(Cl)cc(-n4ccc5cc(F)ccc54)cc3C2)cn1 [Compound 140, tert-butyl N-[(5-{[9-chloro-7-(5-fluoroindol-1-yl)-3,5-dihydro-2H-1,4-benzoxazepin-4-yl]methyl}pyrimidin-2-yl)methyl]carbamate] | 1000 to 5000
5 | COC(=O)c1ncc(CN2CCOc3c(Cl)cc(-n4ccc5cc(F)ccc54)cc3C2)cn1 [Compound 145, Methyl 5-{[9-chloro-7-(5-fluoroindol-1-yl)-3,5-dihydro-2H-1,4-benzoxazepin-4-yl]methyl}pyrimidine-2-carboxylate] | < 100
6 | CNc1ncc(CN2CCOc3c(Cl)cc(-n4ccc5cc(F)ccc54)cc3C2)cn1 [Compound 147] | 100 to 500
7 | Fc1ccc2c(ccn2-c2cc(Cl)c3c(c2)CN(Cc2cnc(NC4COC4)nc2)CCO3)c1 [Compound 149, 5-{[9-chloro-7-(5-fluoroindol-1-yl)-3,5-dihydro-2H-1,4-benzoxazepin-4-yl]methyl}-N-(oxetan-3-yl)pyrimidin-2-amine] | 100 to 500
8 | Oc1ncc(CN2CCOc3c(Cl)cc(-n4ccc5cc(F)ccc54)cc3C2)c(Cl)n1 [Compound 158, 4-chloro-5-{[9-chloro-7-(5-fluoroindol-1-yl)-3,5-dihydro-2H-1,4-benzoxazepin-4-yl]methyl}-3H-pyrimidin-2-one] | 1000 to 5000
9 | COc1nccc(CN2CCOc3c(Cl)cc(-n4ccc5cc(F)ccc54)cc3C2)n1 [Compound 161] | 500 to 1000
10 | Fc1ccc2c(ccn2-c2cc(Cl)c3c(c2)CN(Cc2ccnc(NC4COC4)n2)CCO3)c1 [Compound 162, 4-{[9-chloro-7-(5-fluoroindol-1-yl)-3,5-dihydro-2H-1,4-benzoxazepin-4-yl]methyl}-N-(oxetan-3-yl)pyrimidin-2-amine] | 1000 to 5000
11 | CC(C)(C)OC(=O)Nc1ccc(CN2CCOc3c(Cl)cc(-n4ccc5cc(F)ccc54)cc3C2)nn1 [Compound 168] | > 5000
12 | CC(C)(C)OC(=O)Nc1cnc(CN2CCOc3c(Cl)cc(-n4ccc5cc(F)ccc54)cc3C2)cn1 [Compound 171] | > 5000
13 | COc1cnc(CN2CCOc3c(Cl)cc(-n4ccc5cc(F)ccc54)cc3C2)cn1 [Compound 172] | 1000 to 5000
14 | Fc1ccc2c(ccn2-c2cc(Cl)c3c(c2)CN(Cc2cnc(Cl)cn2)CCO3)c1 [Compound 173] | 1000 to 5000
15 | CC(C)(C)OC(=O)Nc1cc(CN2CCOc3c(Cl)cc(-n4ccc5cc(F)ccc54)cc3C2)ccn1 [Compound 178] | > 5000
16 | Fc1ccc2c(ccn2-c2cc(Cl)c3c(c2)CN(Cc2ccnc(NC4COC4)c2)CCO3)c1 [Compound 182, 4-{[9-chloro-7-(5-fluoroindol-1-yl)-3,5-dihydro-2H-1,4-benzoxazepin-4-yl]methyl}-N-(oxetan-3-yl)pyridin-2-amine] | 1000 to 5000
17 | Fc1ccc2c(ccn2-c2cc(Cl)c3c(c2)CN(Cc2ccnc(Cl)c2F)CCO3)c1 [Compound 190] | 1000 to 5000

Row | Structure (SMILES) | IC50 [nM]
18 | Cc1c(CN2CCOc3c(Cl)cc(-n4ccc5cc(F)ccc54)cc3C2)ccnc1Cl [Compound 191] | 1000 to 5000
19 | Fc1ccc2c(ccn2-c2cc(Cl)c3c(c2)CN(Cc2ccnc(Cl)c2C(F)(F)F)CCO3)c1 [Compound 192] | 100 to 500
20 | COc1cc(CN2CCOc3c(Cl)cc(-n4ccc5cc(F)ccc54)cc3C2)cc(OC)n1 [Compound 197] | > 5000
21 | O=C1NN=CC1CN1CCOc2c(Cl)cc(-n3ccc4cc(F)ccc43)cc2C1 (stereo not drawn) [Compound 199] | 1000 to 5000
22 | Fc1ccc2c(ccn2-c2cc(Cl)c3c(c2)CN(Cc2cncnc2)C2(CC2)CO3)c1 [Compound 218] | > 5000
23 | N#Cc1cccc(CN2Cc3cc(-n4ccc5cc(F)ccc54)cc(Cl)c3OCC23CC3)c1 [Compound 220] | > 5000
24 | COc1cc(CN2CCOc3c(Cl)cc(-n4ccc5cc(F)ccc54)c(C)c3C2)ccn1 [Compound 221] | > 5000
25 | Fc1ccc2c(ccn2-c2cc(Cl)c3c(c2)CN(Cc2cncnc2)CC3)c1 [Compound 222] | > 5000
26 | COc1ncccc1CN1CCc2c(Cl)cc(-n3ccc4cc(F)ccc43)cc2C1 [Compound 223] | > 5000
27 | COc1cc(CN2CCOc3c(Cl)cc(-n4ccc5cc(F)ccc54)cc32)ccn1 [Compound 224] | > 5000
28 | [2H]C1([2H])c2cc(-n3ccc4cc(F)ccc43)cc(Cl)c2OC([2H])([2H])C([2H])([2H])N1Cc1cc[nH]c(=O)c1 [Compound 225] | 100 to 500
29 | [2H]C1([2H])Oc2c(Cl)cc(-n3ccc4cc(F)ccc43)cc2CN(Cc2cc[nH]c(=O)c2)C1([2H])[2H] [Compound 227] | < 100
30 | CC(c1cc[nH]c(=O)c1)N1CCOc2c(Cl)cc(-n3ccc4cc(F)ccc43)cc2C1 (stereo not drawn) [Compound 228] | > 5000
31 | O=c1cc(CN2Cc3cc(-n4ccc5cc(F)ccc54)cc(Cl)c3OCC23COC3)cc[nH]1 [Compound 229] | > 5000
32 | O=c1cc(CN2Cc3cc(-n4ccc5cc(F)ccc54)cc(Cl)c3OCC23CC3)cc[nH]1 [Compound 230] | > 5000
33 | O=c1cc(CN2Cc3cc(-n4ccc5cc(F)ccc54)cc(Cl)c3OCC2C2CC2)cc[nH]1 (stereo not drawn) [Compound 231] | > 5000
34 | CC1c2cc(-n3ccc4cc(F)ccc43)cc(Cl)c2OCCN1Cc1cc[nH]c(=O)c1 (stereo not drawn) [Compound 235] | 500 to 1000

Continued, values first:

Row | IC50 [nM] | Structure (SMILES)
35 | 500 to 1000 | OCc1ncc(CN2CCOc3c(Cl)cc(-n4ccc5cc(F)ccc54)cc3C2)cn1 [Compound 141, (5-{[9-chloro-7-(5-fluoroindol-1-yl)-3,5-dihydro-2H-1,4-benzoxazepin-4-yl]methyl}pyrimidin-2-yl)methanol]
36 | 1000 to 5000 | NC(=O)c1ncc(CN2CCOc3c(Cl)cc(-n4ccc5cc(F)ccc54)cc3C2)cn1 [Compound 143, 5-{[9-chloro-7-(5-fluoroindol-1-yl)-3,5-dihydro-2H-1,4-benzoxazepin-4-yl]methyl}pyrimidine-2-carboxamide]
37 | 500 to 1000 | CN(C)c1ncc(CN2CCOc3c(Cl)cc(-n4ccc5cc(F)ccc54)cc3C2)cn1 [Compound 148]
38 | 1000 to 5000 | O=c1ncc(CN2CCOc3c(Cl)cc(-n4ccc5cc(F)ccc54)cc3C2)c(F)[nH]1 [Compound 155, 5-{[9-chloro-7-(5-fluoroindol-1-yl)-3,5-dihydro-2H-1,4-benzoxazepin-4-yl]methyl}-4-fluoro-3H-pyrimidin-2-one]
39 | 1000 to 5000 | O=c1ncc(CN2CCOc3c(Cl)cc(-n4ccc5cc(F)ccc54)cc3C2)c(O)[nH]1 [Compound 157, 5-{[9-chloro-7-(5-fluoroindol-1-yl)-3,5-dihydro-2H-1,4-benzoxazepin-4-yl]methyl}-4-hydroxy-3H-pyrimidin-2-one]
40 | 1000 to 5000 | Nc1nccc(CN2CCOc3c(Cl)cc(-n4ccc5cc(F)ccc54)cc3C2)n1 [Compound 163, 4-{[9-chloro-7-(5-fluoroindol-1-yl)-3,5-dihydro-2H-1,4-benzoxazepin-4-yl]methyl}pyrimidin-2-amine]
41 | > 5000 | O=c1nccc(CN2CCOc3c(Cl)cc(-n4ccc5cc(F)ccc54)cc3C2)[nH]1 [Compound 164]
42 | 500 to 1000 | Fc1ccc2c(ccn2-c2cc(Cl)c3c(c2)CN(Cc2cccnn2)CCO3)c1 [Compound 166]
43 | 1000 to 5000 | Nc1ccc(CN2CCOc3c(Cl)cc(-n4ccc5cc(F)ccc54)cc3C2)nn1 [Compound 167]
44 | 100 to 500 | O=c1ccc(CN2CCOc3c(Cl)cc(-n4ccc5cc(F)ccc54)cc3C2)c[nH]1 [Compound 175]
45 | 1000 to 5000 | O=c1cc[nH]cc1CN1CCOc2c(Cl)cc(-n3ccc4cc(F)ccc43)cc2C1 [Compound 176]
46 | 1000 to 5000 | Nc1cc(CN2CCOc3c(Cl)cc(-n4ccc5cc(F)ccc54)cc3C2)ccn1 [Compound 179, 4-{[9-chloro-7-(5-fluoroindol-1-yl)-3,5-dihydro-2H-1,4-benzoxazepin-4-yl]methyl}pyridin-2-amine]
47 | 1000 to 5000 | CNc1cc(CN2CCOc3c(Cl)cc(-n4ccc5cc(F)ccc54)cc3C2)ccn1 [Compound 180, 4-{[9-chloro-7-(5-fluoroindol-1-yl)-3,5-dihydro-2H-1,4-benzoxazepin-4-yl]methyl}-N-methylpyridin-2-amine]
48 | 1000 to 5000 | CN(C)c1cc(CN2CCOc3c(Cl)cc(-n4ccc5cc(F)ccc54)cc3C2)ccn1 [Compound 181, 4-{[9-chloro-7-(5-fluoroindol-1-yl)-3,5-dihydro-2H-1,4-benzoxazepin-4-yl]methyl}-N,N-dimethylpyridin-2-amine]
49 | 100 to 500 | OCc1cc(CN2CCOc3c(Cl)cc(-n4ccc5cc(F)ccc54)cc3C2)ccn1 [Compound 183]
50 | 1000 to 5000 | NCc1cc(CN2CCOc3c(Cl)cc(-n4ccc5cc(F)ccc54)cc3C2)ccn1 [Compound 184, 1-(4-{[9-chloro-7-(5-fluoroindol-1-yl)-3,5-dihydro-2H-1,4-benzoxazepin-4-yl]methyl}pyridin-2-yl)methanamine]
51 | 100 to 500 | COC(=O)c1cc(CN2CCOc3c(Cl)cc(-n4ccc5cc(F)ccc54)cc3C2)ccn1 [Compound 186]
52 | > 5000 | Fc1ccc2c(ccn2-c2cc(Cl)c3c(c2)CN(Cc2ccnc(C4CNC4)c2)CCO3)c1 [Compound 188, 4-{[2-(azetidin-3-yl)pyridin-4-yl]methyl}-9-chloro-7-(5-fluoroindol-1-yl)-3,5-dihydro-2H-1,4-benzoxazepine; trifluoroacetic acid]
53 | > 5000 | O=c1[nH]ccc(CN2CCOc3c(Cl)cc(-n4ccc5cc(F)ccc54)cc3C2)c1C(F)(F)F [Compound 195]
54 | 100 to 500 | [2H]C1([2H])c2cc(-n3ccc4cc(F)ccc43)cc(Cl)c2OCCN1Cc1cc[nH]c(=O)c1 [Compound 226]

Reference: patent publication US12624024B2, “EP2 antagonist compounds” (Reservoir Neuroscience, Inc., priority 2021, dated 2026)
